Data: the supplement of paper PMC3493320

Test system: NCI-H295R
Experiment: IC50 (antiproliferative, ATP content)
Conditions: 48 h
Summary of the method: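 Following overnight culture of adrenocortical carcinoma cells (1500 per well) in 1536-well plates with serum-free ITS-supplemented DMEM, library compounds were pin-transferred at 8 final concentrations from 0.6 nM to 46 µM. Incubation lasted 48 h at 37 °C, 5% CO2, and the CellTiter-Glo signal was read after 20 min at room temperature. Data were fitted with a four-parameter logistic model. Each IC50 came from that fit after normalisation to vehicle and positive-control wells, and compounds without a concentration response were reported as above the top dose.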

Structure (SMILES)	IC50 [µM]
C#CC(C)(O)CC (centres undefined)	> 46
NCC(CC(=O)O)c1ccc(Cl)cc1 (centres undefined)	> 46
C[NH+](C)CCC(c1ccccc1)c1cccc[nH+]1.O=C([O-])/C=C\C(=O)[O-] (centres undefined)	> 46
C[C@]12CC[C@H]3[C@@H](CCC4=C(O)C(=O)CC[C@@H]43)[C@@H]1CC[C@@H]2OC(=O)CCC1CCCC1	> 46
O=C2N1[C@]([C@@]([H])2N)([H])SC(C)(C)[C@@H]1[C@@](O)=O	> 46
OC[C@@H](O)[C@@H](O[C@@H]1O[C@H](CO)[C@H](O)[C@H](O)[C@H]1O)[C@H](O)[C@@H](O)CO	> 46
CCCCCCCCCCCCCCCCCC(=O)OC[C@@H](O)[C@H]1OC[C@H](O)[C@H]1O	> 46
OCC(=O)[C@@]3(O)CC[C@H]2[C@@H]4CC\C1=C\C(=O)CC[C@]1(C)[C@H]4C(=O)C[C@@]23C	> 46
CC(=O)c1ccc(S(=O)(=O)NC(=O)NC2CCCCC2)cc1	> 46
COC(=O)C(c1ccccc1)C1CCCCN1.Cl (centres undefined)	> 46
O=C(c1ccc(F)cc1)C1CCN(CCn2c(=O)[nH]c3ccccc3c2=O)CC1	> 46
N[C@H](CC(=O)O)C(=O)O	> 46
O=C(O)CN1C(=O)c2cccc3cccc(c23)C1=O	> 46
Nc1ccn([C@@H]2O[C@H](CO)[C@@H](O)[C@@H]2O)c(=O)n1	> 46
Cl.N[C@H]1C(O)O[C@H](CO)[C@@H](O)[C@@H]1O (some centres undefined)	> 46
COc1ccc(C=NNC(=O)c2ccncc2)c(C(=O)O)c1OC	> 46
N=C(N)NN=Cc1c(Cl)cccc1Cl	> 46
CCN(CC)CCOC(=O)C(c1ccccc1)C1CCCCC1.Cl (centres undefined)	> 46
CN[C@@H]1[C@@H](O)[C@@H](O[C@@H]2[C@H](O)[C@H](O[C@H]3OC(CN)=CC[C@H]3N)[C@@H](N)C[C@H]2N)OC[C@]1(C)O	> 46
CC1=C(C)C(=O)C(C(CCCCCC(=O)O)c2ccccc2)=C(C)C1=O (centres undefined)	> 46

Structure (SMILES)	IC50 [µM]
Nc1ccc(S(N)(=O)=O)cc1	> 46
FC1(F)C(F)(F)C(F)(F)C2(F)C(F)(F)C(F)(F)C(F)(F)C(F)(F)C2(F)C1(F)F (centres undefined)	> 46
C=C1CC[C@@H]2[C@](C)(CO)[C@H](O)CC[C@@]2(C)[C@@H]1C/C=C1/C(=O)OC[C@H]1O	> 46
CN1Cc2c(N)cccc2C(c2ccccc2)C1.O=C(O)/C=C\C(=O)O (centres undefined)	> 46
CN1CCN(c2cc3c(cc2F)c(=O)c(C(=O)O)cn3-c2ccc(F)cc2)CC1.Cl	> 46
Cn1c(=O)c2c(ncn2CCOC(=O)C(C)(C)Oc2ccc(Cl)cc2)n(C)c1=O	> 46
O=[C@@](NC2=O)[C@](N2)3C1=C(OCC3)C=CC(F)=C1	> 46
O=C(O)c1cc(-c2ccccc2)nc2ccccc12	> 46
O=[C@@](C)[C@@H]3[C@]2(C)[C@](CC3)([H])[C@@]1([H])[C@@](CC2)([H])[C@](CC[C@](O)(C)C4)(C)[C@@]4([H])CC1	> 46
Cc1nc(NS(=O)(=O)c2ccc(N)cc2)nc(C)c1Br	> 46
CCOC(=O)c1cncn1C(C)c1ccccc1 (centres undefined)	> 46
CN/C(=N\c1ccc(C2=NNC(=O)CC2C)cc1)NC#N (centres undefined)	> 46
CC1(C)O[C@@H]2CC3C4C[C@H](F)C5=CC(=O)C=C[C@]5(C)C4[C@@H](O)C[C@]3(C)[C@]2(C(=O)CO)O1 (some centres undefined)	> 46
Br.CN1[C@@H]2C[C@@H](OC(=O)[C@H](CO)c3ccccc3)C[C@H]1[C@@H]1O[C@@H]12.O.O.O	> 46
O=c1oc2cc(O)ccc2s1	> 46
C[C@]12C[C@H](O)[C@H]3[C@@H](CCC4=CC(=O)CC[C@@]43C)[C@@H]1CC[C@H]2C(=O)CO	> 46
CCC(C)(C)C(=O)O[C@H]1C[C@@H](C)C=C2C=C[C@H](C)[C@H](CC[C@@H]3C[C@@H](O)CC(=O)O3)[C@H]21	> 46
CCn1cc(C(=O)O)c(=O)c2cc(F)c(N3CCNCC3)nc21	> 46
CCCC(=O)O[C@]1(C(=O)COC(C)=O)CC[C@H]2[C@@H]3C[C@H](F)C4=CC(=O)C=C[C@]4(C)[C@@]3(F)[C@@H](O)C[C@@]21C	> 46
O[C@@H]1CC[C@@H](/C=C(C)/[C@H]([C@H](C)[C@@H](O)CC4=O)O[C@@]([C@H]2N(C(C([C@]3(O)O[C@H]([C@H](C[C@H](C/C(C)=C/[C@H]4CC=C)C)OC)[C@@H](OC)C[C@H]3C)=O)=O)CCCC2)=O)C[C@H]1OC	> 46

Other lines, results leading:

IC50 [µM]	Structure (SMILES)
> 46	C[C@@H](O)[C@H]1C(=O)N2C(C(=O)[O-])=C(SC3Cn4cnc[n+]4C3)[C@H](C)[C@H]12 (some centres undefined)
> 46	CC(=O)NCCCCCC(=O)O
> 46	C/14=C(/C[C@H]([C@H]2[C@H]3[C@](CC[C@H]\12)([C@@](C#C)(O)CC3)C)C)CC(CC4)=O
> 46	C[C@H]1COc2c(C3(N)CC3)c(F)cc3c(=O)c(C(=O)O)cn1c23
> 46	Nc1ncnc2c1ncn2[C@@H]1O[C@H](COP(=O)(O)OP(=O)(O)OP(=O)(O)O)[C@@H](O)[C@H]1O
> 46	Cc1c(C(C)C)c(=O)n(-c2ccccc2)n1C
> 46	CC(C)COCC(CN(Cc1ccccc1)c1ccccc1)N1CCCC1 (centres undefined)
> 46	CCOC(=O)c1ccc(N)cc1
> 46	Cl.NNc1nncc2ccccc12
> 46	CC(O)CN(CCN(CC(C)O)CC(C)O)CC(C)O (centres undefined)
> 46	Cc1cc(=O)n(-c2ccccc2)n1C
> 46	CN1CCN(c2c(F)cc3c(=O)c(C(=O)O)cn4c3c2SCC4)CC1.Cl
> 46	O=C([O-])c1ccc(NC(=O)[C@H](Cc2ccc(O)cc2)NC(=O)c2ccccc2)cc1.[Na+]
> 46	O=[C@](CO)[C@]([C@H]2C1)(O[C@@](CCC)([H])O2)[C@](C[C@@H]3O)(C)[C@@]1([C@@]([C@@]([C@](C)4C=C5)3[H])(CCC4=CC5=O)[H])[H]
> 46	Nc1ccc(C(=O)NCC(=O)O)cc1
> 46	COC(=O)c1cccnc1
> 46	Cl.Cl.NC(=O)C1(N2CCCCC2)CCN(CCCC(=O)c2ccc(F)cc2)CC1
> 46	COc1ccc2[nH]c(S(=O)Cc3ncc(C)c(OC)c3C)nc2n1 (centres undefined)
> 46	NC[C@@H]1CC[C@@H](N)[C@@H](O[C@H]2[C@H](O)[C@@H](O[C@H]3O[C@H](CO)[C@@H](O)[C@H](N)[C@H]3O)[C@H](N)C[C@@H]2N)O1
> 46	C[C@H]1O[C@H](OC[C@@H]2O[C@H](Oc3c(-c4ccc(OCCO)c(OCCO)c4)oc4cc(OCCO)cc(O)c4c3=O)[C@@H](O)[C@H](O)[C@H]2O)[C@@H](O)[C@@H](O)[C@@H]1O
> 46	CN(C)C(=O)C(CCN1CCC(O)(c2ccc(Cl)cc2)CC1)(c1ccccc1)c1ccccc1
> 46	CC(C)(CO)[C@@H](O)C(=O)NCCCO
> 46	O=C(N[C@@H](CCCCN)C(N[C@@H](C(O)C)C(N[C@H](C(N[C@@H]([C@@H](O)C)C(N[C@@H](CO)C6=O)=O)=O)CC5=CC=CC=C5)=O)=O)[C@@H](NC([C@@H](NC([C@@H](NC([C@H](CC(N)=O)NC([C@H](CCCCN)NC([C@@H](NC(CNC([C@@H](N)C)=O)=O)CSSC[C@@H]([C@@](O)=O)N6)=O)=O)=O)CC4=CC=CC=C4)=O)CC3=CC=CC=C3)=O)CC1=CNC2=C1C=CC=C2 (some centres undefined)
> 46	CN(CCOc1ccc(CC2SC(=O)NC2=O)cc1)c1ccccn1 (centres undefined)
